The source made the active and inactive calls.
How the values were obtained:
[1] = fluconazole-exposed Candida albicans growth modulators – fluorescence, retest, confirmation (AID 2467); type: functional, cell-based
[2] = biological target: ATP-dependent molecular chaperone HSP82 (Candida albicans (strain WO-1) (Yeast), UniProt C4YTQ8); assay: steroid-induced GRE reporter decrease in yeast – S. cerevisiae, luminescence, Hsp90 inhibitor project, dose response (AID 2400); type: functional, cell-based;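 note: beta-galactosidase luminescence from glucocorticoid response element reporter as proxy for Hsp90 function; inhibitor potency where signal loss means Hsp90 inhibition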
ATP-dependent molecular chaperone HSP82, sequence (C4YTQ8 whole entry): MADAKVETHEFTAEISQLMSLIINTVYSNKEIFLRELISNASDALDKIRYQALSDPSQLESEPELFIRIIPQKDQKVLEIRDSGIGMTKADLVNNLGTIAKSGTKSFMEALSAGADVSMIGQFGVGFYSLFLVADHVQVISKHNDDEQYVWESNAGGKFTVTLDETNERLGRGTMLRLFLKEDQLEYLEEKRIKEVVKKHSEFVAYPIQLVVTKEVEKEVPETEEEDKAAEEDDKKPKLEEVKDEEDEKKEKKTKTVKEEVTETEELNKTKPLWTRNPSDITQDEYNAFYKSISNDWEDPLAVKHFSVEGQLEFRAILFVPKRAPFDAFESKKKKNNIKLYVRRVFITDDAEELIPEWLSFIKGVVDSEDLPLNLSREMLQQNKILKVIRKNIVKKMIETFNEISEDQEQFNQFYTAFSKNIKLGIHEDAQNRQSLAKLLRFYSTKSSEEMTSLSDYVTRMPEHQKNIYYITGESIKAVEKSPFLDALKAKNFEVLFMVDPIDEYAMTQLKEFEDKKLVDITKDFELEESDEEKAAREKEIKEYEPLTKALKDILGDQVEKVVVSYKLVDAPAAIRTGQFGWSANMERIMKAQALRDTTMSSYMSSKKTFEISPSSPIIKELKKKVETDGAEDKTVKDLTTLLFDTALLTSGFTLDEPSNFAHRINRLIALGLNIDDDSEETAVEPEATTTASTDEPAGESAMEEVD

Candida albicans = assay: antifungal activity against resistant Candida strain – CaCi-8, fluconazole, Alamar Blue, dry powder, dose response (AID 488807); type: functional, organism-based
[3] = NIH-3T3 fibroblast cytotoxicity, dose response, cytotoxicity control, cell-based, fluorescence, Alamar Blue, secondary assay (AID 2327); type: functional;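 note: NIH-3T3 mouse fibroblasts cultured with fluconazole at 8 µg/mL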
[4] = biological target: T1, Serine/threonine-protein phosphatase (Candida dubliniensis (strain CD36 / CBS 7987 / NCPF 3949 / NRRLY-17841) (Yeast), UniProt B9W6M3); assay: blockers of CaCl2-induced CDRE-lacZ signaling – S. cerevisiae, luminescence, secondary, dose response (AID 2388); type: functional, cell-based;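 note: yeast reporter cells carrying a calcineurin-responsive lacZ construct stimulated with calcium chloride; luminescent beta-galactosidase reporter signal in whole cells rather than isolated phosphatase activity; potency for inhibition where a drop in reporter signal means calcineurin blockade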
T1 sequence (B9W6M3 whole entry): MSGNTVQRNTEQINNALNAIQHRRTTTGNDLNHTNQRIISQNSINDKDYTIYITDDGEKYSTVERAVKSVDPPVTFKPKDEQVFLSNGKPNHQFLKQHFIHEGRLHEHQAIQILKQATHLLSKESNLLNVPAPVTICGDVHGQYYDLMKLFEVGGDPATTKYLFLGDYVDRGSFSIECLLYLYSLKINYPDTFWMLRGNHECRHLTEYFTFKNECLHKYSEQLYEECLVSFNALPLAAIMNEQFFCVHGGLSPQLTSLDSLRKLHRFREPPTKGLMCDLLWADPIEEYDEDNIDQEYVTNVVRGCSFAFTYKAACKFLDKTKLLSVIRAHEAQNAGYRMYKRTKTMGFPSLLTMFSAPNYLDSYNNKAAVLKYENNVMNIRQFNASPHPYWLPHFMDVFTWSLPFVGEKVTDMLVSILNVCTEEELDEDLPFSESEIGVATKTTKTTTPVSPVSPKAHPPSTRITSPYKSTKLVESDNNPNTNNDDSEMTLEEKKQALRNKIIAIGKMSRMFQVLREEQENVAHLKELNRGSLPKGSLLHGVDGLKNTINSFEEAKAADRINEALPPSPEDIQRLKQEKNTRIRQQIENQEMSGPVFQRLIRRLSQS

Cysteine protease ATG4B = biological target: T2, Cysteine protease ATG4B (Homo sapiens, UniProt Q9Y4P1); assay: autophagin-1 cysteine protease inhibition – biochemical, fluorescence, set 2, dose response (AID 588584); type: functional
T2 sequence (Q9Y4P1 whole entry): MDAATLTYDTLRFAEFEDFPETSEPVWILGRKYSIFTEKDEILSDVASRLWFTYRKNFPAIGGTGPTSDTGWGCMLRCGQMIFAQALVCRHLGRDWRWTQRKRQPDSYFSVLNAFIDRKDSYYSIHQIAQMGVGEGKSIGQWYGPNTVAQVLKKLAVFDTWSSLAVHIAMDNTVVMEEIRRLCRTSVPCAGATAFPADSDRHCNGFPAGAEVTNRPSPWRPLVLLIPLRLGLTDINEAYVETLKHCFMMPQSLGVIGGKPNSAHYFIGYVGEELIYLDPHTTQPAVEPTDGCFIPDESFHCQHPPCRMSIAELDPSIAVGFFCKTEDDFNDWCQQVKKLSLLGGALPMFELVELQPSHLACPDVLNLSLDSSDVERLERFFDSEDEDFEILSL

Beta-galactosidase = Beta-galactosidase (Escherichia coli, UniProt Q8VNN2); assay: Dose response counterscreen for EBI2 assay utilizing the enzyme, b-galactosidase.; type: functional
Phospholipase A2 = Phospholipase A2 (Homo sapiens, UniProt P04054); assay: phospholipase A2 activity inhibition – biochemical, set 2, counter-screen for ATG4B inhibitor project, dose response (AID 588586); type: functional
Phospholipase A2, sequence (P04054 whole entry): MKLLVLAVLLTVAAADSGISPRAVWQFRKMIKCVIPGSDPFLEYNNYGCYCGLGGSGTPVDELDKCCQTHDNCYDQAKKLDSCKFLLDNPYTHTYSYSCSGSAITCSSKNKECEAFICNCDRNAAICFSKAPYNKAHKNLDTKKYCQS

[5] = biological target: Intestinal-type alkaline phosphatase (Mus musculus, UniProt P24822); assay: PubChem AID 488874; type: functional
Intestinal-type alkaline phosphatase (Mus musculus, UniProt P24822), sequence (P24822 whole entry): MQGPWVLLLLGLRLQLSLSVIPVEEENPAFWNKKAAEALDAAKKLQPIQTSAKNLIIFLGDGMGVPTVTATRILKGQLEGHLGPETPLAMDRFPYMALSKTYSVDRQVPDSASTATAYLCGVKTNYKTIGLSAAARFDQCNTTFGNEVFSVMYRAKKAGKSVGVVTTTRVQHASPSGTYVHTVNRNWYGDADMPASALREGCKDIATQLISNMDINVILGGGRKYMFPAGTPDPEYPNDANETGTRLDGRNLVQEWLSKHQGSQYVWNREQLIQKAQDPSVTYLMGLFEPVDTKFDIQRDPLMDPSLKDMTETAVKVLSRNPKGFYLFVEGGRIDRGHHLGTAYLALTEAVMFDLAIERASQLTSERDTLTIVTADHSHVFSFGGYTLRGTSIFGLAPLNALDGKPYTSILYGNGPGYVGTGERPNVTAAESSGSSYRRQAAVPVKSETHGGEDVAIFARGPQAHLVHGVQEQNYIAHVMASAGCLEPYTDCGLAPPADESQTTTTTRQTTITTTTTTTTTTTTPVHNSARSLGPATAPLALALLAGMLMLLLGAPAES

[6] = biological target: T3, Alkaline phosphatase, tissue-nonspecific isozyme (Homo sapiens, UniProt P05186); assay: activation of tissue-nonspecific alkaline phosphatase – biochemical, TNAP isozyme, human IAP uHTS hits, selectivity assay for human IAP activator project, dose response (AID 488886); type: functional;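 note: potency of compounds raising TNAP activity as a selectivity check on IAP activators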
T3 sequence (P05186 whole entry): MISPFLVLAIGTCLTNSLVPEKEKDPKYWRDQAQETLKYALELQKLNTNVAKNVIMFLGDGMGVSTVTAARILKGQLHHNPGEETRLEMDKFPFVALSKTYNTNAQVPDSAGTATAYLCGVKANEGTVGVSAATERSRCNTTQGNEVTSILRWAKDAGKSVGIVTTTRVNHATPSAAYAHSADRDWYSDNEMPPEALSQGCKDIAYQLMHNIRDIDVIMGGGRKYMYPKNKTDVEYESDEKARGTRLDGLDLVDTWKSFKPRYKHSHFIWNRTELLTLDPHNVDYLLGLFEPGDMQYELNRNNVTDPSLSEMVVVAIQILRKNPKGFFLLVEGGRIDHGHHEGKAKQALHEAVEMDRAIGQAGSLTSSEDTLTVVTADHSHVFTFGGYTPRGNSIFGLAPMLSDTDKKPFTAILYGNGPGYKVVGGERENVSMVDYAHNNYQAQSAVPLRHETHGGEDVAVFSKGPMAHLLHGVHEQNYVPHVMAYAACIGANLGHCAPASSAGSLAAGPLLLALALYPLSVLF

[7] = biological target: T4, Intestinal-type alkaline phosphatase (Homo sapiens, UniProt P09923); assay: activation of human intestinal alkaline phosphatase – biochemical, luminescent, uHTS hits, set 2, dose response (AID 488817); type: functional;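 note: potency of activators that raise enzyme activity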
T4 sequence (P09923 whole entry): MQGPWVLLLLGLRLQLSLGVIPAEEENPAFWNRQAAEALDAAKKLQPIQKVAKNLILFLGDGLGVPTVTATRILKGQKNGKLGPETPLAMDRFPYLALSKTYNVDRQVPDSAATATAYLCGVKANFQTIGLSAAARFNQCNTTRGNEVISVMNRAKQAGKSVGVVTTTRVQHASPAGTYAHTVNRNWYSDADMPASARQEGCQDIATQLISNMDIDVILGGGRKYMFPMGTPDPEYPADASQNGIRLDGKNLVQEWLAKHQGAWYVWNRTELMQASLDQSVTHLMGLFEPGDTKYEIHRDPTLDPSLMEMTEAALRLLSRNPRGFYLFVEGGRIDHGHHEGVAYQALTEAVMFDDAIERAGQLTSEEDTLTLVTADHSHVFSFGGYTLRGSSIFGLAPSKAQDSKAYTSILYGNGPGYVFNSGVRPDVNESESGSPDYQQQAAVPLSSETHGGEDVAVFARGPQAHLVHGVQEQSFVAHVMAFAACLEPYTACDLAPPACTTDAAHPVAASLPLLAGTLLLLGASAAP

[8] = biological target: T4, Intestinal-type alkaline phosphatase; assay: human intestinal alkaline phosphatase activators, dose response, biochemical, luminescence, uHTS hits (AID 463120); type: functional
[9] = biological target: T3, Alkaline phosphatase, tissue-nonspecific isozyme; assay: inhibition of tissue-nonspecific alkaline phosphatase – biochemical, dose response (AID 488882); type: functional
[10] = biological target: T4, Intestinal-type alkaline phosphatase; assay: Dose Response confirmation of uHTS hits from a small molecule inhibitors of human intestinal alkaline phosphatase via a luminescent assay. [Related pubchem assays (depositor defined):AID2544, AID2574]; type: functional
[11] = biological target: T4, Intestinal-type alkaline phosphatase; assay: inhibition of human intestinal alkaline phosphatase – biochemical, luminescent, uHTS hits, set 2, dose response (AID 488793); type: functional
[12] = biological target: T5, RNA-binding protein pos-1 (Caenorhabditis elegans, UniProt G5EF15); assay: disruptors of C. elegans POS-1 RNA interaction – biochemical, fluorescence polarization, dose response (AID 1964);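 note: purified POS-1 fused to maltose binding protein made in E. coli; potency of compounds blocking POS-1 binding to fluorescent RNA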
T5 sequence (G5EF15 whole entry): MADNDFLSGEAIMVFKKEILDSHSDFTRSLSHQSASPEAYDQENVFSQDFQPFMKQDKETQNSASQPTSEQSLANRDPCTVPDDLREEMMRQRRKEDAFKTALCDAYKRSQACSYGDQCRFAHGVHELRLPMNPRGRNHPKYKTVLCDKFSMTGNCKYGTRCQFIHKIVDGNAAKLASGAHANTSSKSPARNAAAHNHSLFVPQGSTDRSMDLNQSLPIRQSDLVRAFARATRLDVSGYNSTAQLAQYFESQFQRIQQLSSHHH

[13] = biological target: T6, Heat shock factor protein 1 (Mus musculus, UniProt P38532); assay: decrease of HSF1-responsive luciferase luminescence – cell-based, NIH3T3, dose retest, confirmation (AID 2382); type: functional;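 note: NIH3T3 fibroblasts with HSF1-driven luciferase reporter stressed by proteasome inhibitor MG132; luminescence from HSF1-driven luciferase expression after 8 hours of MG132 stress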
T6 sequence (P38532 whole entry): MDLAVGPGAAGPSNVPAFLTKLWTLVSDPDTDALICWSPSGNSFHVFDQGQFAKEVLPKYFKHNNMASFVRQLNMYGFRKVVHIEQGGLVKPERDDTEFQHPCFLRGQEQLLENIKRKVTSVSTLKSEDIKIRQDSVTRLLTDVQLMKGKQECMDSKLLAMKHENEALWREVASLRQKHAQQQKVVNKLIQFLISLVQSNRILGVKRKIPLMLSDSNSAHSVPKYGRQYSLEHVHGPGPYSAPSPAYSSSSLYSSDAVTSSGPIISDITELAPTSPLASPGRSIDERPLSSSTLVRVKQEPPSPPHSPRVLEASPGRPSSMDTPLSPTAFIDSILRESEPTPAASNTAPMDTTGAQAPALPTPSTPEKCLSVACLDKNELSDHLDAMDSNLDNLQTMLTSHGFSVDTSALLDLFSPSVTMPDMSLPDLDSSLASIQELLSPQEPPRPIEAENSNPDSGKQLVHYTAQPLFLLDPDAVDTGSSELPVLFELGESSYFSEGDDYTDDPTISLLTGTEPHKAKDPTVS

INS1 = assay: INS-1E survival protection against cytokine death – cell-based, luminescence, retest, dose response (AID 449756); type: functional; conditions: Rattus norvegicus;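 note: cell death triggered by IL-1 beta plus TNF-alpha plus IFN-gamma mixture; protective hits raise ATP signal compared with cytokine alone wells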
[14] = luciferase reporter signal suppression in cells – H4 neuroglioma cells, luminescence, dose response (AID 1990); type: functional, cell-based
[15] = biological target: T7, Zinc finger protein mex-5 (Caenorhabditis elegans, UniProt Q9XUB2); assay: potency of MEX-5 RNA-binding blockers – biochemical, C. elegans, fluorescence polarization, dose response (AID 1960)
T7 sequence (Q9XUB2 whole entry): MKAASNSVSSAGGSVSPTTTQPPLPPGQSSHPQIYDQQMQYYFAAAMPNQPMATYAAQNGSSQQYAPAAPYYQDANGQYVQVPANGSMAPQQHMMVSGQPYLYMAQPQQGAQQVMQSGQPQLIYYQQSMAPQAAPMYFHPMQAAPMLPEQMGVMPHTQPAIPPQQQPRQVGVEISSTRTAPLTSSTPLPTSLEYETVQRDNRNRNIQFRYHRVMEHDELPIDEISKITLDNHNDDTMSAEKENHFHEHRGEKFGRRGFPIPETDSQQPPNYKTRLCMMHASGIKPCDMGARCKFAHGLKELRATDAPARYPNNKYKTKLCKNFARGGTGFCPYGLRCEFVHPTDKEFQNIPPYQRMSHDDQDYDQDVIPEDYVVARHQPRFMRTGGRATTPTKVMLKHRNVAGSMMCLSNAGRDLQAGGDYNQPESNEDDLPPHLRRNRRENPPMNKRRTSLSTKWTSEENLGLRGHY

[16] = Counterscreen for AddAB inhibitors: absorbance-based bacterial cell-based high throughput dose response assay for inhibitors of bacterial viability. [Related pubchem assays (depositor defined):AID435030, AID449728, AID449731, AID488942, AID488955, AID488956]; type: functional
[17] = Luminescence Cell-Based Dose Response HTS to Identify Inhibitors of 5'UTR Stem-Loop Driven Prion Protein mRNA Translation in H4 Neuroglioblastoma Cells. [Related pubchem assays: 1827 (Project Summary), 1813 (Primary HTS)]; type: functional
Exodeoxyribonuclease V = Exodeoxyribonuclease V (Escherichia coli (strain K12), UniProt P04993+P07648+P08394); assay: RecBCD inhibition via phage-restricted bacterial growth – absorbance, V66 E. coli, mutant T4 phage, counter-screen for AddAB inhibitor project, dose response (AID 492957); type: functional, cell-based, Escherichia coli str. K-12 substr. MG1655
Exodeoxyribonuclease V, sequence (P04993 whole entry): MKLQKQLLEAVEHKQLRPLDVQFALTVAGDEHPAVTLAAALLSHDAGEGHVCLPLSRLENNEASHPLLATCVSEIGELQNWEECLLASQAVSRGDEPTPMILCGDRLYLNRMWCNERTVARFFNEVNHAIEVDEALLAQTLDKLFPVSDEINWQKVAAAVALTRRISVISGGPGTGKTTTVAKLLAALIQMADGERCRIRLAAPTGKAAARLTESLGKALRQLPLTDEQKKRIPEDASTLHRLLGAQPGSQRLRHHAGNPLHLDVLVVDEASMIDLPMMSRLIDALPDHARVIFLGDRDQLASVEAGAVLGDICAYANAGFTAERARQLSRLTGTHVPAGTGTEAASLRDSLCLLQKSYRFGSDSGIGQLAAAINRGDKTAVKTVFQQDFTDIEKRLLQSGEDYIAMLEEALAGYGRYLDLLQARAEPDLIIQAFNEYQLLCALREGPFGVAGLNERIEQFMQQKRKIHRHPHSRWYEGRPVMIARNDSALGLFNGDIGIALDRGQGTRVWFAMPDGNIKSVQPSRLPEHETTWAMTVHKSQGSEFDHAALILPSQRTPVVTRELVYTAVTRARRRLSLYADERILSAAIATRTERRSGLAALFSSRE
Exodeoxyribonuclease V, sequence (P07648 whole entry): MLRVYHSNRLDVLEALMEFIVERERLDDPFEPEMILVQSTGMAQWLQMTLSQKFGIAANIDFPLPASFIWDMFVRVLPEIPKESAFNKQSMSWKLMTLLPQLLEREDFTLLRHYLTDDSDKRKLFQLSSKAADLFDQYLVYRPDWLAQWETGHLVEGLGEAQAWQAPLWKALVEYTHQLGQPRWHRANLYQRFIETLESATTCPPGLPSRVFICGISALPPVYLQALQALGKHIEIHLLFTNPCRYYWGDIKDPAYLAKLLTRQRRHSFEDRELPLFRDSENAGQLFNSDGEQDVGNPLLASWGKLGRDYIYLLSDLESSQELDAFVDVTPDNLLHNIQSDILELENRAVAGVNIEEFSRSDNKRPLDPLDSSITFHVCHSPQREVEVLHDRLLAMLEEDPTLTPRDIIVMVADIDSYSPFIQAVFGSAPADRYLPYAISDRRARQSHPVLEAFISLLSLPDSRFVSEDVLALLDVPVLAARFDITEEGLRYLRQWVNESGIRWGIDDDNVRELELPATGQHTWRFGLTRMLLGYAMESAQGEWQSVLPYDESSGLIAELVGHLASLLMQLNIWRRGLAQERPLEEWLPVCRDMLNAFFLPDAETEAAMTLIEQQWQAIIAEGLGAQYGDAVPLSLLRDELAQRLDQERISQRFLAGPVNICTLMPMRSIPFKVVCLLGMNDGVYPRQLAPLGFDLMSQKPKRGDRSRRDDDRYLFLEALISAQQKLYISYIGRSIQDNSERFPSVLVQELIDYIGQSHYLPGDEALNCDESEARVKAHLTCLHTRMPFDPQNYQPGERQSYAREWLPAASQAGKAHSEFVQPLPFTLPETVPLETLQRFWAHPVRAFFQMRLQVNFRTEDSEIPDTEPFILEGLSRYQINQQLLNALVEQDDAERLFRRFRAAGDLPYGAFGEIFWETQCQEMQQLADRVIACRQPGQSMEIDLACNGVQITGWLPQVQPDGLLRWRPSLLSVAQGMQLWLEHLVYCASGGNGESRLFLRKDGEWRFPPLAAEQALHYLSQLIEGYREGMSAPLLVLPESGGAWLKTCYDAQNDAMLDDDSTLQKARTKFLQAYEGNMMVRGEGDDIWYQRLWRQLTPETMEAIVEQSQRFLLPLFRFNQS
Exodeoxyribonuclease V, sequence (P08394 whole entry): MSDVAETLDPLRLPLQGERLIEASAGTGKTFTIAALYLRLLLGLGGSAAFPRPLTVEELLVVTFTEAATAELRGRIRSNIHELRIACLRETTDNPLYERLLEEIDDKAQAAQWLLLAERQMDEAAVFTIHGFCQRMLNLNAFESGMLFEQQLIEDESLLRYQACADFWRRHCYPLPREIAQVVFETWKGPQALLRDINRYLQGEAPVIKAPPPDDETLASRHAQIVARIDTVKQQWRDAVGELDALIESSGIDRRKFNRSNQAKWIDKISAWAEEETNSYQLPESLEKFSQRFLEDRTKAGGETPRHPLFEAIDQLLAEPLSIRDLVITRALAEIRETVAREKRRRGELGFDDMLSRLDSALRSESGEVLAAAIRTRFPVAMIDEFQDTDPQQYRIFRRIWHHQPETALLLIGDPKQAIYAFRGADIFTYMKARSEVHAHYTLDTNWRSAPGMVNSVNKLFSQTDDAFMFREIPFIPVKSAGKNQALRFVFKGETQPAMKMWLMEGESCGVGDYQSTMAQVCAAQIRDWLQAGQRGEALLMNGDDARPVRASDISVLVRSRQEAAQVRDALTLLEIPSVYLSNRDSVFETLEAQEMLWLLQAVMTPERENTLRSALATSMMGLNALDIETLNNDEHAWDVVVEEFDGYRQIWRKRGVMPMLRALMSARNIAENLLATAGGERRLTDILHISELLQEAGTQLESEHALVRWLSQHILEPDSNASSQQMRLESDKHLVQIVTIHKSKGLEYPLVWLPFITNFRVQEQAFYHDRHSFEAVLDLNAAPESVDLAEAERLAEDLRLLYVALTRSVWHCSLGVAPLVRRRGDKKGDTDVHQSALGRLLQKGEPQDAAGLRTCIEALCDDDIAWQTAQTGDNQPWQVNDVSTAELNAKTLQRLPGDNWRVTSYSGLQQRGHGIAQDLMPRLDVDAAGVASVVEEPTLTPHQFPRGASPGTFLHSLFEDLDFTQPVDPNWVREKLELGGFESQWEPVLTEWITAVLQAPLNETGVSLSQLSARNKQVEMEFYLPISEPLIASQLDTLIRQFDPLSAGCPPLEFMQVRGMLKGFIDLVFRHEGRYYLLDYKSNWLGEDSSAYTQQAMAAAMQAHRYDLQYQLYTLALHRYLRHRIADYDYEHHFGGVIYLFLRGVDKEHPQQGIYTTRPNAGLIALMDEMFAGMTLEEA

[18] = alpha-synuclein stem-loop luciferase translation blockers – H4 neuroglioma cells, luminescence, confirmation (AID 1988); type: functional, cell-based

In the case of COC(=O)Cn1nc(-c2ccccc2)c2ccccc21, the EC50 [1] is reported as 0.81 µM (active), the EC50 [2] is reported as 33.9 µM (active) and the AC50 (Candida albicans) is reported as 1.15 µM (active). For the same molecule, the EC50 [3] was > 150 µM (inactive) and the EC50 [4] was > 180 µM (inactive).
With Clc1ccc(-c2nnc(CSc3nnc(-c4cccs4)n3Cc3ccccc3)o2)cc1 the IC50 (Cysteine protease ATG4B) was 37.3 µM (inactive), the IC50 (Beta-galactosidase) was > 80 µM (inactive) and the IC50 (Phospholipase A2) was 35.1 µM (inactive).
With COc1ccc(C2=NN(C3=NN=C(N)Cc4ncnn43)C(O)(C(F)(F)F)C2)cc1 (configuration not stated) the IC50 [5] was 41.2 µM (active), the EC50 [6] was 14.1 µM (active) and the EC50 [7] was 13.3 µM (active). The EC50 [8] was 7.5 µM (active).
With CCOc1cc(/C=C2/C(=O)ON=C2C)cc(Br)c1O the IC50 [5] was 33.1 µM (active), the IC50 [9] was 38.1 µM (active) and the IC50 [10] was 19.3 µM (inactive). The IC50 [11] was 35.8 µM (active).
With CCCNC(=O)c1ccc2c(O)c(O)c(-c3cccc(Br)c3)nc2c1 the EC50 [1] was 2.09 µM (active), the EC50 [12] was 1.6 µM (active) and the EC50 [13] was > 195 µM (not active). The AC50 (INS1) was 5.4 µM (active), the EC50 [14] was 3.04 µM (active) and the EC50 [15] was 2.73 µM (active). For the same molecule, the IC50 [16] was > 119 µM (inactive), the EC50 [17] was 4.83 µM (active) and the EC50 [3] was 15.6 µM (active). For the same molecule, the IC50 (Exodeoxyribonuclease V) was > 119 µM (inactive) and the EC50 [18] was 3.4 µM (active).

Source: ChEMBL document CHEMBL1201862, “PubChem BioAssay data set” (2004)
